Assay [1] addresses T1, human A3 receptors (CHO-hA3 membrane preparation) (Homo sapiens, UniProt P0DMS8).
T1 sequence (P0DMS8 1-318): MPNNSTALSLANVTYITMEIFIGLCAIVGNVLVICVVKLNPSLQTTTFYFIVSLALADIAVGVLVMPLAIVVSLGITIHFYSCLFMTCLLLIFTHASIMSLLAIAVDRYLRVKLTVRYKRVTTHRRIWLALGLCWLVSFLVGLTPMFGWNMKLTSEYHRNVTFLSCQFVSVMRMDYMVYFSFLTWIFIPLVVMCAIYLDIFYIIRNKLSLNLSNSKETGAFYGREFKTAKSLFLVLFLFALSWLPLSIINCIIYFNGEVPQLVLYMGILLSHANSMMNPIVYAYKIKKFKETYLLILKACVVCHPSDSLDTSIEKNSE
Nature of the assay: Human adenosine A3 receptor binding in the presence of [125I]AB-MECA.
Protocol: Human Adenosine A3 Receptor Binding
(§1) Preparing membrane suspension: collect ovarium cells of cloned Chinese hamster expressing human A3 receptors (further: CHO-hA3), wash them three times with PBS, centrifuge (1000×g 10 min.) and homogenize (B.Braun Potter S) at 1500/min rotation speed. Buffer: 50 mM Tris, 10 mM MgCl2, 1 mM EDTA, pH 8.0. Centrifuge this homogenized mixture (43.000 g, 10 min), suspense the pellet in the above buffer with adjustment of the protein concentration to 0.1 mg/mL (Bradford method) and complete with 2 U/mL ADA.
Receptor Binding in the Presence of [^125I]AB-MECA:
Incubate the CHO-hA3 membrane preparation (protein content 2 μg) in the presence of the test compound and 0.5 nM [^125I]AB-MECA (4-amino-3-iodo-benzyl-5′-N-methylcarboxamide-adenosine) (100.000 cpm) in incubation buffer (50 mM Tris, 10 mM MgCl2, 1 mM EDTA, 2 U/mL adenosine deaminase, pH 8.0). […] Filter under 25 Hgmm vacuum over Whatman GF/C glass fibre filters (presoaked in 0.5% polyethylimine for 3 hours), wash 4× with 1 mL ice-cold buffer (50 mM Tris, 10 mM MgCl2, 1 mM EDTA, pH 8) on 96-well Brandel Cell Harvester. Detection of radioactivity: in gamma-counter (1470 Wizard, Wallac). Inhibition [%]=100−((activity in the presence of test compound−non-specific activity)/(total activity−non-specific activity))*100.

Assay [2] has as its target T2, human A1 receptors (CHO-hA1 membrane preparation) (Homo sapiens, UniProt P30542).
T2 sequence (P30542 1-326): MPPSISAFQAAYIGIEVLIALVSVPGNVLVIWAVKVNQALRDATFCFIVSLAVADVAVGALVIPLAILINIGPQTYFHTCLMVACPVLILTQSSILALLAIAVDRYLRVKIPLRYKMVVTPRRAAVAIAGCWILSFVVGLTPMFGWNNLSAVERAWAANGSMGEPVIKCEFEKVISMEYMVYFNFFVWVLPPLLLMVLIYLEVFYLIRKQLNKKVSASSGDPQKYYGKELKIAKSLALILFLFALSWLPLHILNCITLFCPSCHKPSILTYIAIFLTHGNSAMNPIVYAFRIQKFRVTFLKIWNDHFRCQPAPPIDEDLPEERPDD
Nature of the assay: Human adenosine A1 receptor binding, [3H]CCPA. The settings on record: 1 μM test compound, radioligand [3H]CCPA. On the procedure:
Preparing membrane suspension: collect ovarium cells of cloned Chinese hamster expressing human A1 receptors (further: CHO-hA1), wash them three times with PBS, centrifuge (1000×g 10 min.) and homogenize (B.Braun Potter S) at 1500/min rotation speed. Buffer: 50 mM Tris HCl, pH 7,4. Centrifuge this homogenized mixture (43.000 g, 10 min), suspense the pellet in the above buffer with adjustment of the protein concentration to 5 mg/mL (Bradford method) and complete with 2 U/mL ADA. […] Filter over Whatman GF/B glass fibre filters (presoaked in 0.5% polyethylimine for 3 hours), wash 4× with 1 mL ice-cold 50 mM Tris HCl (pH 7.4) on 96-well Brandel Cell Harvester. Detection of activity: in 96-well plate in the presence of HiSafe-3 cocktail in beta-counter (1450 Microbeta, Wallac). Inhibition [%]=100−((activity in the presence of test compound−non-specific activity)/(total activity−non-specific activity))*100

Assay [3] deals with T3, human A2a adenosine receptors transfected into HEK-293 cells (Homo sapiens, UniProt P29274).
T3 construct: purchased Receptor Biology, Inc; host or cells: HEK-293 cells (transfected), membranes
T3 sequence (P29274 whole entry): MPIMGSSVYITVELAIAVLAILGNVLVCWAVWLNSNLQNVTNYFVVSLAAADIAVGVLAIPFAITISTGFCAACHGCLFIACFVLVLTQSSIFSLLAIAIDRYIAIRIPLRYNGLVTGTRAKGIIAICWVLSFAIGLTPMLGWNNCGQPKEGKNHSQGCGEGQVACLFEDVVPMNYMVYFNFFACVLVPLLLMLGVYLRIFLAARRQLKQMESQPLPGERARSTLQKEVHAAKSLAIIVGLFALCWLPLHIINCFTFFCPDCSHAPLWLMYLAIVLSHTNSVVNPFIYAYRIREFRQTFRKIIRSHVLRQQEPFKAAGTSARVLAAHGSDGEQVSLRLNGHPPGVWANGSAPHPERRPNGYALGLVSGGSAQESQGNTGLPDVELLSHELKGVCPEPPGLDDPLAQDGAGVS
Nature of the assay: Human adenosine A2a receptor binding, [3H]CGS-21680. The following applies: 1 μM test compound, radioligand [3H]CGS21680; read-out: Inhibition in 1 μM hA2A [3H]CGS21680. On the procedure: Human Adenosine A2a Receptor Binding
Incubate 7 μg of membranes (human A2, adenosine receptors transfected into HEK-293 cells, source: Receptor Biology, Inc.), in the presence of the test compound and 20 nM [^3H]CGS-21680 (2-[p-(2-carbonylethyl)phenylethylamino]-5′-N-ethylcarboxamido-adenosine) (200.000 dpm) in incubation buffer (50 mM Tris HCl, 10 mM MgCl2, 1 mM EDTA, 2 U/mL adenosine deaminase, pH 7.4). The non-specific binding is defined in the presence of […] NECA (5′-N-ethylcarboxamido-adenosine) in a total volume of 100 μl for 90 min at room temperature. Filter in vacuum over Whatman GF/B glass fibre filters (presoaked for 3 hours in 0.5% polyethylimine), wash 4× with 1 mL ice-cold buffer (50 mM Tris HCl, 10 mM MgCl2, 1 mM EDTA, 0.9% NaCl, pH 7.4) on 96-well Brandel Cell Harvester. Detection of activity: in beta-counter (1450 Microbeta, Wallac) in the presence of 200 μL HiSafe-3 cocktail. Inhibition [%]=100−((activity in the presence of test compound−non-specific activity)/(total activity−non-specific activity))*100.

In assay [4] the target is T4, human A2b adenosine receptors transfected into HEK-293 cells (Homo sapiens, UniProt P29275).
T4 construct: purchased Receptor Biology, Inc; host or cells: HEK-293 cells (transfected), membranes
T4 sequence (P29275 1-332): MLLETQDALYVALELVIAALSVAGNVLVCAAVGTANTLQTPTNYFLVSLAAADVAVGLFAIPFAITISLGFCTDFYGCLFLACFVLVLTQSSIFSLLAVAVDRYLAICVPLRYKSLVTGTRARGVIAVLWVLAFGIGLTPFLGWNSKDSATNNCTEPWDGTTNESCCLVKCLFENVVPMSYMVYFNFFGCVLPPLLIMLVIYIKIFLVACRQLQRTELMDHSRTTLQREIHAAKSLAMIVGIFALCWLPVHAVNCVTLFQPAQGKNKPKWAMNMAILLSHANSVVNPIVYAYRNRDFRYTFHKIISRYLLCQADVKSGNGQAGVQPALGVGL
The experiment in a line: Human adenosine A2b receptor binding, [3H]DPCPX. The following applies: 1 μM test compound, radioligand [3H]DPCPX; read-out: Inhibition in 1 μM hA2B [3H]DPCPX. On the procedure:
Human Adenosine A2b Receptor Binding
Binding protocol: incubate 20.8 μg of membranes (human A2b adenosine receptors transfected into HEK-293 cells, source: Receptor Biology, Inc.), in the presence of the test compound and 32.4 nM [^3H]DPCPX (8-cyclopenthyl-1,3-dipropylxanthine) (800.000 dpm) in incubation buffer (50 mM Tris-HCl, 10 mM MgCl2, 1 mM EDTA, 0.1 mM benzamidine, 2 U/mL adenosine deaminase, pH 6.5). The non-specific binding is defined in the presence of 100 μM NECA (5′-N-ethylcarboxamido-adenosine) in a total volume of 100 μL for 30 min at room temperature. Filter under 25 Hgmm vacuum over Whatman GF/C glass fibre filters (presoaked in 0.5% polyethylimine for 3 hours), wash 4× with 1 mL ice-cold 50 mM Tris HCl (pH 6.5) on 96-well Brandel Cell Harvester. Detection of activity: in beta-counter (1450 Microbeta, Wallac) in the presence of 200 μL of HiSafe-3 cocktail. Inhibition [%]=100−((activity in the presence of test compound−non-specific activity)/(total activity−non-specific activity))*100

In assay [5] the target is T1, human A3 receptors (CHO-hA3 membrane preparation). The experiment in a line: Human adenosine A3 receptor binding in the presence of the radioactive iodine-containing compound of Example 2/a. The settings on record: radioligand of Example 2/a, 4 μg CHO-hA3 preparation, Cheng-Prusoff from IC50; read-out: Ki, the radioligand given in Example 2/a.
Protocol: as §1
Receptor Binding in the Presence of the Radioactive Iodine-Containing Compound of Example 2/a:
Incubate the CHO-hA3 membrane preparation (protein content 4 μg) in the presence of the test compound and 0.5 nM of the compound containing radioactive iodine (100.000 cpm), described in Example 2/a, in incubation buffer (50 mM Tris, pH 8.0, 10 mM MgCl2, 1 mM EDTA, 0.08% CHAPS, 0.5% BSA, 2 U/mL adenosine deaminase). […] Detection of radioactivity: in gamma-counter (1470 Wizard, Wallac). […]
Knowing the KD values, by the Cheng-Prusoff equation (Y. J. Cheng and W. H. Prusoff, Biochem. Pharmacol. 22:3099, 1973) the Ki constants of the investigated reference compounds and that of the starting compound of Example 2/b (i.e. of the un-labeled analogue of the new radioligand of Example 2/a) were calculated on the basis of the IC50 values.
Assay [6] addresses T5, human adenosine A3 receptor (CHO-hA3 membrane preparation) (Homo sapiens, UniProt P0DMS8).
T5 sequence (P0DMS8 1-318): T1 sequence (P0DMS8 1-318)
The experiment in a line: Scatchard analysis of radioisotope saturation curves of the radioligand of Example 2/a. Format: binding.
Protocol: as §1
Incubate the CHO-hA3 membrane preparation (protein content 4 μg) in the presence of the test compound and 0.5 nM of the compound containing radioactive iodine (100.000 cpm), described in Example 2/a, in incubation buffer (50 mM Tris, pH 8.0, 10 mM MgCl2, 1 mM EDTA, 0.08% CHAPS, 0.5% BSA, 2 U/mL adenosine deaminase). […] Keep the isotop preparation and the reaction mixture in polyethylene tube to decrease adsorption. […] Detection of radioactivity: in gamma-counter (1470 Wizard, Wallac). […]
On the basis of radioisotop saturation curves, by Scatchard analysis (G. Scatchard, Ann. N. Y. Acad. Sci. 51:660, 1949) the dissociation constant (KD) of the new radioligand of Example 2/a on CHO-hA3 membrane preparation is determined.

For the compound `COc1ccc(C(=O)Nc2nc3ccc(I)cc3c(NCc3cccs3)c2C#N)cc1` [The starting compound of Example 2/b, 4-Methoxy-N-(6-iodo-4-[2-thienylmethylamino]-3-cyanoquinolin-2-yl)benzamide], the “selectivity for adenosine A3 receptor compared to the other adenosine receptor sub-types” value in assay [1] (A3 versus A1, A2a, A2b) is listed as “at least thousand-fold selectivity”. For the same compound, the Ki is 1.5 nM in assay [1] (radioligand [125I]AB-MECA, CHO-hA3 membranes) and 1.3 nM in assay [5]. In addition, the inhibition at 1 µM in assay [2] was 4%; in assay [3] it was 29%; in assay [4], -16%.
Regarding `COc1ccc(C(=O)Nc2nc3ccc([125I])cc3c(NCc3cccs3)c2C#N)cc1` [Example 2/a, 4-Methoxy-N-(6-[^125I]iodo-4-[2-thienylmethylamino]-3-cyanoquinolin-2-yl)benzamide], the Kd in assay [6] (0.156 nM-10 nM radioligand, 4 μg protein CHO-hA3, read-out: dissociation constant (KD)) was found to be 4 nM. Moreover, in assay [6] (4 μg protein CHO-hA3), the maximal binding capacity amounted to 985 femtomol/1 mg protein.

As a reminder, the inhibition is the relative decrease from the control value, in per cent. A word on the Kd: it is the constant that tells how readily two partners part at equilibrium.
